Source: the supplement of paper PMC10307832

Assays:
Assay in all cases: relative viability (nuclei count vs DMSO), 5 days (fraction); higher = more cells survive
[1] = compound: CS(=O)(=O)N1CCN(Cc2cc3nc(-c4cccc5[nH]ncc45)nc(N4CCOCC4)c3s2)CC1 [Pictilisib] + CC(C)C[C@H](NC(=O)[C@H](Cc1ccccc1)NC(=O)c1cnccn1)B(O)O [Bortezomib] (partner 0.002 µM)
Procedure, shortened: (§1)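 Each reported value is a median over duplicate plates. It expresses relative viability: treated-well nuclei count divided by vehicle-well nuclei count. Lung cancer cell lines in 1536-well plates were dosed by pin tool a day after seeding, alone with one drug or with a fixed anchor-drug dose plus five library-drug doses (not always all listed) in √10 steps, and nuclei were counted after 5 days.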

[2] = compound: CS(=O)(=O)N1CCN(Cc2cc3nc(-c4cccc5[nH]ncc45)nc(N4CCOCC4)c3s2)CC1 [Pictilisib] + CCNC(=O)c1noc(-c2cc(C(C)C)c(O)cc2O)c1-c1ccc(CN2CCOCC2)cc1 [Luminespib] (partner 0.01 µM)
Procedure, shortened: as §1

[3] = compound: NC1(c2ccc(-c3nc4ccn5c(=O)[nH]nc5c4cc3-c3ccccc3)cc2)CCC1 [MK-2206] + COc1cccc2cc(-c3nc([C@H]4CC[C@H](C(=O)O)CC4)n4ncnc(N)c34)[nH]c12 [OSI-027] (partner 0.5 µM)
Procedure, shortened: as §1

[4] = compound: NC1(c2ccc(-c3nc4ccn5c(=O)[nH]nc5c4cc3-c3ccccc3)cc2)CCC1 [MK-2206] + Cc1cc(Nc2cc(N3CCN(C)CC3)nc(Sc3ccc(NC(=O)C4CC4)cc3)n2)n[nH]1 [Tozasertib] (partner 0.1 µM)
Procedure, shortened: as §1

[5] = compound: NC1(c2ccc(-c3nc4ccn5c(=O)[nH]nc5c4cc3-c3ccccc3)cc2)CCC1 [MK-2206] + Cc1nc(NC(=O)N2CCC[C@H]2C(N)=O)sc1-c1ccnc(C(C)(C)C(F)(F)F)c1 [Alpelisib] (partner 2 µM)
Procedure, shortened: as §1

LCLC-103H
relative viability ([1]; first compound 0.02 µM): 1.02
relative viability ([1]; first compound 0.06325 µM): 0.982
relative viability ([1]; first compound 0.6325 µM): 0.779
relative viability ([1]; first compound 2 µM): 0.775
relative viability ([2]; first compound 0.02 µM): 0.989
relative viability ([2]; first compound 0.06325 µM): 0.903
relative viability ([2]; first compound 0.6325 µM): 0.606
relative viability ([2]; first compound 2 µM): 0.438
relative viability ([3]; first compound 0.01 µM): 0.476
relative viability ([3]; first compound 0.03162 µM): 0.459
relative viability ([3]; first compound 0.3162 µM): 0.445
relative viability ([3]; first compound 1 µM): 0.408
relative viability ([4]; first compound 0.01 µM): 0.495
relative viability ([4]; first compound 0.03162 µM): 0.609
relative viability ([4]; first compound 0.3162 µM): 0.516
relative viability ([4]; first compound 1 µM): 0.477
relative viability ([5]; first compound 0.01 µM): 1.02
relative viability ([5]; first compound 0.03162 µM): 0.977
relative viability ([5]; first compound 0.3162 µM): 0.933
relative viability ([5]; first compound 1 µM): 0.826

COR-L23
relative viability ([1]; first compound 0.02 µM): 1.1
relative viability ([1]; first compound 0.06325 µM): 1.04
relative viability ([1]; first compound 0.6325 µM): 1.03
relative viability ([1]; first compound 2 µM): 0.963
relative viability ([2]; first compound 0.02 µM): 0.768
relative viability ([2]; first compound 0.06325 µM): 0.808
relative viability ([2]; first compound 0.6325 µM): 0.562
relative viability ([2]; first compound 2 µM): 0.442
relative viability ([3]; first compound 0.01 µM): 0.793
relative viability ([3]; first compound 0.03162 µM): 0.712
relative viability ([3]; first compound 0.3162 µM): 0.689
relative viability ([3]; first compound 1 µM): 0.611
relative viability ([4]; first compound 0.01 µM): 0.186
relative viability ([4]; first compound 0.03162 µM): 0.243
relative viability ([4]; first compound 0.3162 µM): 0.234
relative viability ([4]; first compound 1 µM): 0.17
relative viability ([5]; first compound 0.01 µM): 0.82
relative viability ([5]; first compound 0.03162 µM): 0.904
relative viability ([5]; first compound 0.3162 µM): 0.681
relative viability ([5]; first compound 1 µM): 0.686

H3255
relative viability ([1]; first compound 0.02 µM): 0.881
relative viability ([1]; first compound 0.06325 µM): 0.832
relative viability ([1]; first compound 0.6325 µM): 0.632
relative viability ([1]; first compound 2 µM): 0.395
relative viability ([2]; first compound 0.02 µM): 0.922
relative viability ([2]; first compound 0.06325 µM): 0.796
relative viability ([2]; first compound 0.6325 µM): 0.688
relative viability ([2]; first compound 2 µM): 0.666
relative viability ([3]; first compound 0.01 µM): 0.635
relative viability ([3]; first compound 0.03162 µM): 0.624
relative viability ([3]; first compound 0.3162 µM): 0.481
relative viability ([3]; first compound 1 µM): 0.413
relative viability ([4]; first compound 0.01 µM): 0.773
relative viability ([4]; first compound 0.03162 µM): 0.663
relative viability ([4]; first compound 0.3162 µM): 0.511
relative viability ([4]; first compound 1 µM): 0.703
relative viability ([5]; first compound 0.01 µM): 0.694
relative viability ([5]; first compound 0.03162 µM): 0.748
relative viability ([5]; first compound 0.3162 µM): 0.53
relative viability ([5]; first compound 1 µM): 0.6

NCI-H2126
relative viability ([1]; first compound 0.02 µM): 1.05
relative viability ([1]; first compound 0.06325 µM): 1.15
relative viability ([1]; first compound 0.6325 µM): 1.07
relative viability ([1]; first compound 2 µM): 0.923
relative viability ([2]; first compound 0.02 µM): 0.847
relative viability ([2]; first compound 0.06325 µM): 0.852
relative viability ([2]; first compound 0.6325 µM): 0.646
relative viability ([2]; first compound 2 µM): 0.421
relative viability ([3]; first compound 0.01 µM): 0.709
relative viability ([3]; first compound 0.03162 µM): 0.683
relative viability ([3]; first compound 0.3162 µM): 0.567
relative viability ([3]; first compound 1 µM): 0.48
relative viability ([4]; first compound 0.01 µM): 0.814
relative viability ([4]; first compound 0.03162 µM): 0.897
relative viability ([4]; first compound 0.3162 µM): 0.822
relative viability ([4]; first compound 1 µM): 0.775
relative viability ([5]; first compound 0.01 µM): 0.719
relative viability ([5]; first compound 0.03162 µM): 0.707
relative viability ([5]; first compound 0.3162 µM): 0.678
relative viability ([5]; first compound 1 µM): 0.621

LU99A
relative viability ([1]; first compound 0.02 µM): 1.36
relative viability ([1]; first compound 0.06325 µM): 1.18
relative viability ([1]; first compound 0.6325 µM): 0.757
relative viability ([1]; first compound 2 µM): 0.514
relative viability ([2]; first compound 0.02 µM): 0.254
relative viability ([2]; first compound 0.06325 µM): 0.228
relative viability ([2]; first compound 0.6325 µM): 0.251
relative viability ([2]; first compound 2 µM): 0.204
relative viability ([3]; first compound 0.01 µM): 0.318
relative viability ([3]; first compound 0.03162 µM): 0.335
relative viability ([3]; first compound 0.3162 µM): 0.219
relative viability ([3]; first compound 1 µM): 0.283
relative viability ([4]; first compound 0.01 µM): 0.302
relative viability ([4]; first compound 0.03162 µM): 0.281
relative viability ([4]; first compound 0.3162 µM): 0.271
relative viability ([4]; first compound 1 µM): 0.21
relative viability ([5]; first compound 0.01 µM): 0.569
relative viability ([5]; first compound 0.03162 µM): 0.559
relative viability ([5]; first compound 0.3162 µM): 0.396
relative viability ([5]; first compound 1 µM): 0.472

HOP-62
relative viability ([1]; first compound 0.02 µM): 1.15
relative viability ([1]; first compound 0.06325 µM): 0.986
relative viability ([1]; first compound 0.6325 µM): 0.693
relative viability ([1]; first compound 2 µM): 0.652
relative viability ([2]; first compound 0.02 µM): 1.01
relative viability ([2]; first compound 0.06325 µM): 0.906
relative viability ([2]; first compound 0.6325 µM): 0.803
relative viability ([2]; first compound 2 µM): 0.874
relative viability ([3]; first compound 0.01 µM): 0.808
relative viability ([3]; first compound 0.03162 µM): 0.808
relative viability ([3]; first compound 0.3162 µM): 0.74
relative viability ([3]; first compound 1 µM): 0.828
relative viability ([4]; first compound 0.01 µM): 0.381
relative viability ([4]; first compound 0.03162 µM): 0.39
relative viability ([4]; first compound 0.3162 µM): 0.391
relative viability ([4]; first compound 1 µM): 0.322
relative viability ([5]; first compound 0.01 µM): 1.14
relative viability ([5]; first compound 0.03162 µM): 0.925
relative viability ([5]; first compound 0.3162 µM): 1.03
relative viability ([5]; first compound 1 µM): 0.914

HCC-15
relative viability ([1]; first compound 0.02 µM): 1.01
relative viability ([1]; first compound 0.06325 µM): 1.01
relative viability ([1]; first compound 0.6325 µM): 1.02
relative viability ([1]; first compound 2 µM): 0.899
relative viability ([2]; first compound 0.02 µM): 0.493
relative viability ([2]; first compound 0.06325 µM): 0.346
relative viability ([2]; first compound 0.6325 µM): 0.38
relative viability ([2]; first compound 2 µM): 0.291
relative viability ([3]; first compound 0.01 µM): 0.663
relative viability ([3]; first compound 0.03162 µM): 0.675
relative viability ([3]; first compound 0.3162 µM): 0.436
relative viability ([3]; first compound 1 µM): 0.404
relative viability ([4]; first compound 0.01 µM): 0.397
relative viability ([4]; first compound 0.03162 µM): 0.394
relative viability ([4]; first compound 0.3162 µM): 0.28
relative viability ([4]; first compound 1 µM): 0.235
relative viability ([5]; first compound 0.01 µM): 0.836
relative viability ([5]; first compound 0.03162 µM): 0.884
relative viability ([5]; first compound 0.3162 µM): 0.859
relative viability ([5]; first compound 1 µM): 0.832
